Target: PDE9 (Homo sapiens (Human), UniProt O76083)
Experiment: PDE9-inhibiting activity (SPA enzyme assay)
Format: biochemical
Conditions: IC50 values; cGMP 1 μM substrate, 30° C.; read-out: PDE9 inhibition
Method: The PDE9-inhibiting activity was measured by the following method. That is, to a buffer solution containing tris(hydroxymethyl)aminomethane-hydrochloric acid (40 mM, pH 8.0), magnesium chloride (5 mM), and 2-mercaptoethanol (4 mM) were added cGMP (1 μM) and ^3H-cGMP (0.33 μCi/ml) to give a substrate buffer solution. A test substance solution and an enzyme solution which had been adjusted to an optimal concentration were added thereto to perform a reaction at 30° C. The enzyme reaction was stopped by the addition of Scintillation Proximity Assay (SPA) Beads (Perkin Elmer, USA) containing 5 mM 3-isobutyl-1-methylxanthine (IBMX). For the enzyme activity, the amount of 5′-GMP, which is a reaction degradation product bound to SPA beads, was measured with a TopCount microplate reader (Hewlett Packard, USA). The inhibitory rate was calculated by taking the radioactivity of the control containing no test substance as (A), taking the radioactivity of the blank containing no enzyme as (B), and taking the radioactivity of the test substance as (C), and using the following equation.

PDE9, sequence (O76083 whole entry): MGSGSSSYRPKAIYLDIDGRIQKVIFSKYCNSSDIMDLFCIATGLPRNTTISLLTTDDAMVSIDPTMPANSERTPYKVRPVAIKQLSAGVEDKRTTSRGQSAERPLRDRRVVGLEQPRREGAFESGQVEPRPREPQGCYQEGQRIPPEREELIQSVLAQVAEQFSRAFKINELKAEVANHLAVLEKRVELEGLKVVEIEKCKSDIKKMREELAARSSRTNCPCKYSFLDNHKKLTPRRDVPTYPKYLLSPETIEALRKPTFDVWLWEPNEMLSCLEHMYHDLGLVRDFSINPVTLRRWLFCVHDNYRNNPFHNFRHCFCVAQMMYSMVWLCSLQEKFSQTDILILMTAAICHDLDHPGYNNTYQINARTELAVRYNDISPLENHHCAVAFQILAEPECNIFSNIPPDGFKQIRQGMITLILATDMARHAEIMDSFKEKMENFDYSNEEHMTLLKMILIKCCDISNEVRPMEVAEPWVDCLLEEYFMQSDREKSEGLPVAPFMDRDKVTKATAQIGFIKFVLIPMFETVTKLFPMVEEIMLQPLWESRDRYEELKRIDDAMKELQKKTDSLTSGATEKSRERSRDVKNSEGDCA

Structure (SMILES) | IC50 [nM]
Cc1cc2[nH]c(=O)c3cnn([C@H]4CCOC4)c3c2cc1C(=O)N1CCC(OCC2CC2)CC1 [Example 198] | 3.2
COCCCCN1C[C@H](C)N(C(=O)c2cc3c(cc2C)[nH]c(=O)c2cnn(CC4CC4)c23)C[C@H]1C [Example 187] | 8.4
COCCCCN1CCN(C(=O)c2cc3c(cc2C)[nH]c(=O)c2cnn(CC4CCOCC4)c23)CC1 [Example 154] | 32
Cc1cc2[nH]c(=O)c3cnn(C4CCOCC4)c3c2cc1C(=O)N1CC2CN(Cc3ccccc3)CC2C1 (stereo not drawn) [Example 74] | 12
Cc1cc2[nH]c(=O)c3cnn(C4CCOCC4)c3c2cc1C(=O)N1CCN(c2cnccn2)CC1 [Example 50] | 7.5
COCCCCN1CCN(C(=O)c2cc3c(cc2C)[nH]c(=O)c2cnn(CC4CC4)c23)C[C@@H]1C [Example 195] | 4.4
COCC(F)(F)CN1CCN(C(=O)c2cc3c(cc2C)[nH]c(=O)c2cnn([C@H]4CCOC4)c23)CC1 [Example 166] | 10
CCOCC1CCN(C(=O)c2cc3c(cc2C)[nH]c(=O)c2cnn(C4CCOCC4)c23)C1 (stereo not drawn) [Example 92] | 6.1
Cc1cc2[nH]c(=O)c3cnn(C4CCOCC4)c3c2cc1C(=O)N1CCC2(CCCO2)CC1 [Example 87] | 12
COCCCCN1C[C@@H]2C[C@H]1CN2C(=O)c1cc2c(cc1C)[nH]c(=O)c1cnn(C3CCOCC3)c12 [Example 145] | 8.3
Cc1cc2[nH]c(=O)c3cnn([C@H]4CCOC4)c3c2cc1C(=O)N1CCC(OC[C@H](C)F)CC1 [Example 178] | 4.4
Cc1cc2[nH]c(=O)c3cnn(C4CCC(F)(F)CC4)c3c2cc1C(=O)N1CCN(CCC(F)(F)F)[C@@H](C)C1 [Example 208] | 1.7
COCCCCN1CCN(C(=O)c2cc3c(cc2C)[nH]c(=O)c2cnn(C4CCCC4)c23)C[C@@H]1C [Example 186] | 3.8
COCCCCN1CCN(C(=O)c2cc3c(cc2C)[nH]c(=O)c2cnn(C4CCC4)c23)C[C@@H]1C [Example 146] | 5.2
CCOCCC1CCN(C(=O)c2cc3c(cc2C)[nH]c(=O)c2cnn([C@H]4CCOC4)c23)CC1 [Example 201] | 6.6
Cc1ccc(OC2CCN(C(=O)c3cc4c(cc3C)[nH]c(=O)c3cnn(C5CCN(C)CC5)c34)CC2)nc1 [Example 213] | 11
CCOCCCCN1CCN(C(=O)c2cc3c(cc2C)[nH]c(=O)c2cnn(C4CCOCC4)c23)CC1 [Example 107] | 15
Cc1cc2[nH]c(=O)c3cnn(C4CCOCC4)c3c2cc1C(=O)N1CC(N(C)CCC(F)(F)F)C1 [Example 150] | 8
COCCCCN1CCN(C(=O)c2cc3c(cc2C)[nH]c(=O)c2cnn(CC4CC(F)(F)C4)c23)C[C@@H]1C [Example 204] | 6.2
Cc1cc2[nH]c(=O)c3cnn(C4CCOCC4)c3c2cc1C(=O)N1CCN(CC(F)(F)F)CC1 [Example 427] | 20
COCCCN1CCN(C(=O)c2cc3c(cc2C)[nH]c(=O)c2cnn(CC4CC4)c23)C[C@@H]1C [Example 640] | 3.3
COCCCCN(C)[C@H]1CCN(C(=O)c2cc3c(cc2C)[nH]c(=O)c2cnn(C4CCOCC4)c23)C1 [Example 127] | 5
Cc1cc2[nH]c(=O)c3cnn([C@H]4CCOC4)c3c2cc1C(=O)N1CCC(OCC(F)(F)F)CC1 [Example 203] | 2.8
COCCCN1CCN(C(=O)c2cc3c(cc2C)[nH]c(=O)c2cnn(CC4CCC4)c23)C[C@@H]1C [Example 648] | 2
Cc1cc2[nH]c(=O)c3cnn(C4CCC4)c3c2cc1C(=O)N1CCN(CCC(F)(F)F)CC1 [Example 161] | 31
Cc1cc2[nH]c(=O)c3cnn(C4CCOCC4)c3c2cc1C(=O)N1CCC(OC2CCC2)CC1 [Example 169] | 2.5

Structure (SMILES) | IC50 [nM]
Cc1cc2[nH]c(=O)c3cnn(CC4CCC4)c3c2cc1C(=O)N1C[C@@H](C)N(CCC(F)(F)F)C[C@@H]1C [Example 190] | 7.5
Cc1cc2[nH]c(=O)c3cnn(C4CCOCC4)c3c2cc1C(=O)N1CCC(O)(C(F)(F)F)CC1 [Example 221] | 24
Cc1cc2[nH]c(=O)c3cnn([C@H]4CCN(C)C4)c3c2cc1C(=O)N1CCN(c2ccc(F)c(C)n2)[C@@H](C)C1 [Example 181] | 4.4
CCN1CCN(C(=O)c2cc3c(cc2C)[nH]c(=O)c2cnn(C4CCN(C)CC4)c23)C[C@@H]1c1ccccc1 [Example 214] | 16
Cc1cc2[nH]c(=O)c3cnn([C@H]4CCOC4)c3c2cc1C(=O)N1CCC(OC2CCC2)CC1 [Example 202] | 3.7
Cc1cc2[nH]c(=O)c3cnn(C4CCOCC4)c3c2cc1C(=O)N1CCN(CCC(F)(F)F)[C@@H](C)C1 [Example 207] | 1.7
Cc1cc2[nH]c(=O)c3cnn(CC4CC4)c3c2cc1C(=O)N1C[C@@H](C)N(CCC(F)(F)F)C[C@@H]1C [Example 188] | 14
COCCCN1CCN(C(=O)c2cc3c(cc2C)[nH]c(=O)c2cnn(C4CCC(F)(F)CC4)c23)C[C@@H]1C [Example 624] | 10
CCc1cc2[nH]c(=O)c3cnn(C4CCOCC4)c3c2cc1C(=O)N1CCN(CCCCOC)[C@H](C)C1 [Example 129] | 1.1
Cc1cc2[nH]c(=O)c3cnn(CC4CC4)c3c2cc1C(=O)N1CCN(CCC(F)(F)F)[C@@H](C)C1 [Example 210] | 1.3
Cc1cc2[nH]c(=O)c3cnn(C4CCOCC4)c3c2cc1C(=O)N1CCN(CCCOC(F)(F)F)CC1 [Example 173] | 6.3
COc1cc2[nH]c(=O)c3cnn(C4CCCC4)c3c2cc1C(=O)NCC(C)(C)N1CCOCC1 [Example 119] | 8.9
Cc1cc2[nH]c(=O)c3cnn([C@H]4CCN(C)C4)c3c2cc1C(=O)N1CCN(c2ccc(F)c(C)n2)[C@H](C)C1 [Example 182] | 5.5
Cc1cc2[nH]c(=O)c3cnn(C4CCOCC4)c3c2cc1C(=O)N1CCC2(CC1)COc1ccccc12 [Example 283] | 5.9
COCCCCN1C[C@H](C)N(C(=O)c2cc3c(cc2C)[nH]c(=O)c2cnn(CC4CCC4)c23)C[C@H]1C [Example 189] | 6.9
COCCCCN1CCN(C(=O)c2cc3c(cc2OC)[nH]c(=O)c2cnn(C4CCCC4)c23)CC1 [Example 123] | 18
Cc1cc2[nH]c(=O)c3cnn([C@H]4CCOC4)c3c2cc1C(=O)N1CCC(OC[C@@H](C)F)CC1 [Example 220] | 16
COCCC1CCN(C(=O)c2cc3c(cc2C)[nH]c(=O)c2cnn([C@H]4CCOC4)c23)CC1 [Example 668] | 9.8
Cc1cc2[nH]c(=O)c3cnn(C4CCOCC4)c3c2cc1C(=O)N1CCC(OCC(F)F)CC1 [Example 94] | 1.7
Cc1cc2[nH]c(=O)c3cnn([C@H]4CCOC4)c3c2cc1C(=O)N1CCN(CCC(F)(F)F)CC1 [Example 185] | 19
CCOCCCN1CCN(C(=O)c2cc3c(cc2C)[nH]c(=O)c2cnn(C4CCC4)c23)CC1 [Example 70] | 17
CCOCCCCN1CCN(C(=O)c2cc3c(cc2C)[nH]c(=O)c2cnn([C@H]4CCOC4)c23)CC1 [Example 660] | 28
CCOCC1CCN(C(=O)c2cc3c(cc2C)[nH]c(=O)c2cnn([C@H]4CCOC4)c23)CC1 [Example 148] | 5.1
COCCCN1CCN(C(=O)c2cc3c(cc2C)[nH]c(=O)c2cnn(C4CCC4)c23)C[C@@H]1C [Example 179] | 6.8
Cc1cc2[nH]c(=O)c3cnn([C@H]4CCOC4)c3c2cc1C(=O)N1CCN(CCCC(F)(F)F)CC1 [Example 200] | 9

Reference: patent US8822448B2, “Pyrazoloquinoline compound” (Astellas Pharma Inc., priority 2010, dated 2014)
